One series relates to caspase 8. The experiment in a line: Western blot of caspase 8 activation in Cal51 cells. It counts as cell-based. The method, then: (§1) FIG. 3. Effect of 2-MeOE2bisMATE on caspase 8 and caspase 3 activation and PARP cleavage in Cal51 cells. Western blots showing caspase 8 and caspase 3 unprocessed and active fragments and PARP uncleaved and cleaved products following treatment of Cal51 cells with solvent, 0.05, 0.5 or 5 μM 2-MeOE2bisMATE for 48 hours.
(§2) FIG. 5. Effect of 2-MeOE2bisMATE on the timing of caspase 3 and caspase 8 activation and PARP cleavage in Cal51 cells. Western blots showing caspase 3, caspase 8 and PARP unprocessed and cleaved products at 0, 8, 16, 24 and 48 hrs following treatment of Cal51 cells with 5 μM 2-MeOE2bisMATE for 48 hrs or untreated for 48 hrs (48NT).
(§3) To determine whether caspases might play a role in cell death induced by 2-MeOE2bisMATE and other sulfamoylated oestrogen derivatives, we examined the expression of caspase 3, caspase 8 and PARP by immunoblotting (FIG. 3). […]
(§4) There are two major pathways of apoptosis; cell surface death receptors activate caspases directly via activation of caspase 8 whereas other apoptotic stimuli operate via triggering the release of cytochrome c from mitochondria which subsequently activates caspases. […] Caspase 3 activation was first detected at 16 hours and as expected was followed by PARP cleavage at 24 hours (FIG. 5). Caspase 8 activation was a relatively late event, first detected at 48 hours. […]
On the technique in general: Immunoblotting shows a protein as a band on a membrane.

For another series, the system named is caspase 3. In words: Western blot of caspase 3 activation in Cal51 cells. It counts as cell-based. The method, then: as §1, §2
FIG. 7. Effect of combined treatment of 2-EtEMATE or 2-MeOEMATE and TRAIL on caspase 3 activation in Cal51 cells. Western blots showing caspase 3 activation following treatment of Cal51 cells for 48 hours with solvent, 250 ng/ml TRAIL and 5 μM 2-EtEMATE or 2-MeOEMATE in the presence or absence of 250 ng/ml TRAIL. PCNA levels represent corresponding loading controls. 1, control; 2, THF solvent; 3, TRAIL; 4, 2-EtEMATE; 5,2-EtEMATE+TRAIL; 6, control; 7, THF solvent; 8, TRAIL; 9, 2-MeOEMATE; 10, 2-MeOEMATE+TRAIL
To determine whether caspases might play a role in cell death induced by 2-MeOE2bisMATE and other sulfamoylated oestrogen derivatives, we examined the expression of caspase 3, caspase 8 and PARP by immunoblotting (FIG. 3). […] Therefore, cell death induced by the 2-MeOE2bisMATE in Cal51 cells is associated with caspase activation.
There are two major pathways of apoptosis; cell surface death receptors activate caspases directly via activation of caspase 8 whereas other apoptotic stimuli operate via triggering the release of cytochrome c from mitochondria which subsequently activates caspases. Both pathways ultimately result in activation of caspase 3 and PARP cleavage. Since activation of caspase 8 is an indicator for the direct involvement of death receptors, it is important to determine whether activation of caspase 8 by 2-MeOE2bisMATE precedes or follows caspase 3 activation. We therefore performed time course experiments in Cal51 cells treated with 2-MeOE2bisMATE to order the activation events. Caspase 3 activation was first detected at 16 hours and as expected was followed by PARP cleavage at 24 hours (FIG. 5). Caspase 8 activation was a relatively late event, first detected at 48 hours. Therefore activation of caspase 3 induced by 2-MeOE2bisMATE precedes activation of caspase 8.
To further explore the mechanism for co-operation between sulfamoylated oestrones and TRAIL, we analysed activation of caspase 3 (FIG. 7). […] Therefore, sulfamoylated oestrones and TRAIL cooperate to activate caspase 3.

In the next series the test system is PARP. In words: Western blot of PARP cleavage in Cal51 cells. It counts as cell-based. The method, then: as §1, §2, §3, §4
A further series has as its system CAL51 cells. In words: TUNEL assay of apoptosis in Cal51 cells with or without caspase inhibitor ZVAD-fmk. It counts as cell-based. The following applies: 5 μM 2-MeOE2bisMATE with 50 μM zVAD-fmk, 3 days. The method, then:
FIG. 4. Effect of the caspase inhibitor ZVAD-fmk on 2-MeOE2bisMATE induced apoptosis in Cal51 cells. TUNEL assay showing % apoptosis of cells untreated or following treatment with 50 μM ZVAD-fmk, 5 μM 2-MeOE2bisMATE or 5 μM 2-MeOE2bisMATE and 50 μM zVAD-fmk for 3 days. Histograms are overlays for control cells stained in the absence of TdT enzyme (bold) or cells stained with TUNEL reaction mix (open).
To determine whether the activation of caspases was important for cell killing, we tested whether a broad range chemical caspase inhibitor interfered with apoptosis. Cells were treated with 2-MeOE2bisMATE in the presence and absence of the caspase inhibitor ZVAD-fmk and cell death was analysed using the TUNEL assay which measures the DNA cleavage associated with apoptosis. The induction of TUNEL positive cells by 2-MeOE2bisMATE was reduced by 60% in the presence of zVAD-fmk (FIG. 4). Therefore 2-MeOE2bisMATE requires activation of caspases for optimal induction of apoptosis.

A further series deals with DR5 protein. In words: Western blot of DR5 protein levels in Cal51 cells. It counts as cell-based. To be noted: 48 hours, 0.05, 0.5 and 5 μM. The method, then:
FIG. 6. […] Western blot showing DR5 protein levels following treatment of Cal51 cells for 48 hours with 0, 0.05, 0.5 and 5 μM of 2-MeOEMATE or 2-EtEMATE. PCNA levels represent corresponding loading controls.
Protein lysates were prepared from CAL51 cells treated with various compounds and analysed for expression of DR5 by immunoblotting (FIG. 6).

The conditions of series [1]: in vivo; cited from earlier work.
The mark [2] stands for this setting: Cal51 cells, 5 μM, time course 0-48 hrs.
The mark [3] stands for this setting: Cal51 cells, 0.05, 0.5 or 5 μM, 48 hours.

Each structure is given as a SMILES string.

With `COc1cc2c(cc1OS(N)(=O)=O)CCC1C2CCC2(C)C(OS(N)(=O)=O)CCC12` (stereo not shown) [2-MeOE2bisMATE, 2-methoxyoestrone-3-O,17-bissulphamate], the “time at which caspase 8 activation was first detected” value with caspase 8 (setting [2]) turned out to be 48 h. Further, the “activation of caspase 8” value in the series on caspase 8 (setting [3]) was “dose dependent activation”. For the same compound, the “time at which caspase 3 activation was first detected” value in the series on caspase 3 (setting [2]) is 16 h. Moreover, in the series with caspase 3 (setting [3]), the “activation of caspase 3” value is “dose dependent activation”. In addition, the “activation of caspase 3, synergistic effect with TRAIL” value in the series with caspase 3 (in combination with TRAIL) is reported as “increased activation of caspase 3”. For the same compound, in the series on PARP (setting [2]), the “time of PARP cleavage” value came to 24 h. Also, the PARP cleavage result in the series with PARP (setting [3]) was “Cleavage of PARP”. In addition, in the series on CAL51 cells, the “reduction of induction of TUNEL positive cells in the presence of zVAD-fmk” value stood at 60%. In addition, the “DR5 protein levels by western blot” value in the series on DR5 protein was “no significant change”.
Take `C[C@]12CC[C@@H]3c4ccc(OS(=O)(=O)O)cc4CC[C@H]3[C@@H]1CCC2=O` [E1S, oestrone sulphate]: the half-life in blood in series [1] was 10 to 12 h.

Values taken from US7211246B2, “Compositions comprising oestrone-3-0-sulphamate and trail (TNF-related apoptosis inducing ligand)” (Sterix Limited, priority 2001, dated 2007).
